Here are results for eight compounds from US10004701B2, “Methods and compositions for treating infection” (UNIVERSITY OF ROCHESTER, priority 2012, dated 2018).

Counter-ions that a name gives are not always drawn. Like-named read-outs stand apart in the source and are kept apart here.

Holding throughout (assay): AK assay 384-well format, Prestwick library screening
For test [1], the system named is A. baumannii strain 98-37-09. The format is cell-based, Acinetobacter baumannii. Particulars: 50 μM final drug concentration; for fold induction at 50 µM: Acinetobacter baumannii, 983709, 3 h.
In another test the test system is E. coli. The format is cell-based, Escherichia coli. Conditions: 50 μM final drug concentration; for fold induction at 50 µM: Escherichia coli, 3 h.
Test [2] relates to S. aureus strain USA300-0114. The format is cell-based, Staphylococcus aureus. Conditions: 50 μM final drug concentration; for fold induction at 50 µM: Staphylococcus aureus, USA300, 3 h.
The subject of a further test is K. pneumoniae. Format: cell-based, Klebsiella pneumoniae. Conditions: 50 μM final drug concentration; for fold induction at 50 µM: Klebsiella pneumoniae, 3 h.
For another test, the system named is E. faecium. Format: cell-based, Enterococcus faecium. Particulars: 50 μM final drug concentration; for fold induction at 50 µM: Enterococcus faecium, 3 h.
Another test has as its system P. aeruginosa. Format: cell-based, Pseudomonas aeruginosa. Particulars: 50 μM final drug concentration; for fold induction at 50 µM: Pseudomonas aeruginosa, 3 h.
The test system of the next test is E. cloacae. Format: cell-based, Enterobacter cloacae. Conditions: 50 μM final drug concentration; for fold induction at 50 µM: Enterobacter cloacae, 3 h.
The mark [3] stands for this setting: planktonic A. baumannii, positive cutoff 3-fold increase, read-out: AK-based Prestwick library screening result, A. baumannii (fold increase in extracellular AK activity).
The mark [4] stands for this setting: planktonic E. coli, positive cutoff 3-fold increase, read-out: AK-based Prestwick library screening result, E. coli (fold increase in extracellular AK activity).
[5] abbreviates: planktonic S. aureus, positive cutoff 3-fold increase, read-out: AK-based Prestwick library screening result, S. aureus (fold increase in extracellular AK activity).
Setting [6] is: planktonic K. pneumoniae, positive cutoff 3-fold increase, read-out: AK-based Prestwick library screening result, K. pneumoniae (fold increase in extracellular AK activity).
Setting [7] is: planktonic E. faecium, positive cutoff 3-fold increase, read-out: AK-based Prestwick library screening result, E. faecium (fold increase in extracellular AK activity).
Setting [8] is: planktonic P. aeruginosa, positive cutoff 3-fold increase, read-out: AK-based Prestwick library screening result, P. aeruginosa (fold increase in extracellular AK activity).
[9] abbreviates: planktonic E. cloacae, positive cutoff 3-fold increase, read-out: AK-based Prestwick library screening result, E. cloacae (fold increase in extracellular AK activity).
[10] abbreviates: planktonic, cutoff for positive 3-fold increase.

On to `CC1CCc2c(N3CCC(O)CC3)c(F)cc3c(=O)c(C(=O)O)cn1c23` (centres unmarked) [Nadifloxacin], for which the fold induction at 50 µM in test [1] (setting [3]) was found to be 2.9; in the test with E. coli (setting [4]) it was 13.4; in test [2] (setting [5]) it was 4.3; in the test on K. pneumoniae (setting [6]) it was 5.2; in the test with E. faecium (setting [7]), 2.8; in the test with P. aeruginosa (setting [8]) it was 17.7. Also, in the test with E. cloacae (setting [9]), the fold induction at 50 µM amounted to 1.7.
For the compound `CC(=O)OCC(=O)[C@@]1(O)CC[C@H]2[C@@H]3CCC4=CC(=O)C=C[C@]4(C)[C@@]3(F)[C@@H](O)C[C@@]21C` [Isoflupredone acetate], the fold induction at 50 µM in test [1] (384-well format, cutoff for positive-scoring molecules 3-fold increase, read-out: AK-based Prestwick Library Screening Results, A. baumannii (increase in extracellular AK activity)) was determined as 0.4; in the test on E. coli (384-well format, cutoff for positive-scoring molecules 3-fold increase, read-out: AK-based Prestwick Library Screening Results, E. coli (increase in extracellular AK activity)), 0.5; in test [2] (384-well format, cutoff for positive-scoring molecules 3-fold increase, read-out: AK-based Prestwick Library Screening Results, S. aureus (increase in extracellular AK activity)), 0.4; in the test with K. pneumoniae (384-well format, cutoff for positive-scoring molecules 3-fold increase, read-out: AK-based Prestwick Library Screening Results, K. pneumoniae (increase in extracellular AK activity)), 0.5; with E. faecium (384-well format, cutoff for positive-scoring molecules 3-fold increase, read-out: AK-based Prestwick Library Screening Results, E. faecium (increase in extracellular AK activity)), 0.9; in the test with P. aeruginosa (384-well format, cutoff for positive-scoring molecules 3-fold increase, read-out: AK-based Prestwick Library Screening Results, P. aeruginosa (increase in extracellular AK activity)), 0.4. The fold induction at 50 µM in the test with E. cloacae (384-well format, cutoff for positive-scoring molecules 3-fold increase, read-out: AK-based Prestwick Library Screening Results, E. cloacae (increase in extracellular AK activity)) was found to be 0.4.
`CCOC(=O)[C@H](CCc1ccccc1)N[C@@H](C)C(=O)N1CCC[C@H]1C(=O)O` [Enalapril maleate]: the fold induction at 50 µM in test [1] (planktonic A. baumannii, 384-well, […], read-out: AK-based Prestwick Library Screening Results: A. baumannii (increase in extracellular AK activity)) came to 1.3; in the test on E. coli (planktonic E. coli, 384-well, […], read-out: AK-based Prestwick Library Screening Results: E. coli (increase in extracellular AK activity)), 1.2; in test [2] (planktonic S. aureus, 384-well, […], read-out: AK-based Prestwick Library Screening Results: S. aureus (increase in extracellular AK activity)), 1.3; with K. pneumoniae (planktonic K. pneumoniae, 384-well, […], read-out: AK-based Prestwick Library Screening Results: K. pneumoniae (increase in extracellular AK activity)) it was 1.2; in the test with E. faecium (planktonic E. faecium, 384-well, […], read-out: AK-based Prestwick Library Screening Results: E. faecium (increase in extracellular AK activity)), 1.1; with P. aeruginosa (planktonic P. aeruginosa, 384-well, […], read-out: AK-based Prestwick Library Screening Results: P. aeruginosa (increase in extracellular AK activity)) it was 1.2. In addition, the fold induction at 50 µM with E. cloacae (planktonic E. cloacae, 384-well, […], read-out: AK-based Prestwick Library Screening Results: E. cloacae (increase in extracellular AK activity)) turned out to be 1.3.
Turning to `COc1cccc2c1C(=O)c1c(O)c3c(c(O)c1C2=O)C[C@@](O)(C(C)=O)C[C@@H]3O[C@H]1C[C@H](N)[C@H](O)[C@H](C)O1` [Daunorubicin hydrochloride], the fold induction at 50 µM in test [1] (planktonic A. baumannii, […], read-out: AK-based Prestwick Library Screening Results, A. baumannii (increase in extracellular AK activity)) was determined as 0.6; with E. coli (planktonic E. coli, […], read-out: AK-based Prestwick Library Screening Results, E. coli (increase in extracellular AK activity)), 0.9; in test [2] (planktonic S. aureus, […], read-out: AK-based Prestwick Library Screening Results, S. aureus (increase in extracellular AK activity)), 2.1; in the test with K. pneumoniae (planktonic K. pneumoniae, […], read-out: AK-based Prestwick Library Screening Results, K. pneumoniae (increase in extracellular AK activity)) it was 0.5; with E. faecium (planktonic E. faecium, […], read-out: AK-based Prestwick Library Screening Results, E. faecium (increase in extracellular AK activity)), 2.3; with P. aeruginosa (planktonic P. aeruginosa, […], read-out: AK-based Prestwick Library Screening Results, P. aeruginosa (increase in extracellular AK activity)) it was 0.5. In addition, the fold induction at 50 µM with E. cloacae (planktonic E. cloacae, […], read-out: AK-based Prestwick Library Screening Results, E. cloacae (increase in extracellular AK activity)) came to 0.6.
As to Vitamin K2, the “AK-based Prestwick library screening result, A. baumannii (fold increase in extracellular AK activity)” value in test [1] (planktonic A. baumannii, positive cutoff 3-fold increase) is listed as 1.1. Moreover, the “AK-based Prestwick library screening result, E. coli (fold increase in extracellular AK activity)” value with E. coli (planktonic E. coli, positive cutoff 3-fold increase) amounted to 0.9. For the same compound, the “AK-based Prestwick library screening result, S. aureus (fold increase in extracellular AK activity)” value in test [2] (planktonic S. aureus, positive cutoff 3-fold increase) is recorded as 1.8. In the test on K. pneumoniae (planktonic K. pneumoniae, positive cutoff 3-fold increase), the “AK-based Prestwick library screening result, K. pneumoniae (fold increase in extracellular AK activity)” value came out at 0.8. Further, the “AK-based Prestwick library screening result, E. faecium (fold increase in extracellular AK activity)” value in the test on E. faecium (planktonic E. faecium, positive cutoff 3-fold increase) came out at 1.0. Also, the “AK-based Prestwick library screening result, P. aeruginosa (fold increase in extracellular AK activity)” value in the test with P. aeruginosa (planktonic P. aeruginosa, positive cutoff 3-fold increase) is listed as 1.1. For the same compound, the “AK-based Prestwick library screening result, E. cloacae (fold increase in extracellular AK activity)” value in the test with E. cloacae (planktonic E. cloacae, positive cutoff 3-fold increase) is recorded as 1.6.
On to `OC[C@H]1O[C@@H](Oc2ccc(O)cc2)[C@H](O)[C@@H](O)[C@@H]1O` [Arbutin], for which the fold induction at 50 µM in test [1] (setting [3]) was 1.5; with E. coli (setting [4]), 1.2; in test [2] (setting [5]), 1.1; in the test with K. pneumoniae (setting [6]), 1.2; with E. faecium (setting [7]) it was 0.9; in the test on P. aeruginosa (setting [8]) it was 1.1. In addition, in the test with E. cloacae (setting [9]), the fold induction at 50 µM was 1.4.
Turning to `c1ccc2c(c1)OCC(C1=NCCN1)O2` (centres unmarked) [Idazoxan hydrochloride], the fold induction at 50 µM came out at 1.1 in test [1] (cutoff for positive-scoring molecules 3-fold increase, read-out: AK-based Prestwick Library Screening Results, A. baumannii (fold increase in extracellular AK activity)); 1.1 in the test on E. coli (cutoff for positive-scoring molecules 3-fold increase, read-out: AK-based Prestwick Library Screening Results, E. coli (fold increase in extracellular AK activity)); 1.1 in test [2] (cutoff for positive-scoring molecules 3-fold increase, read-out: AK-based Prestwick Library Screening Results, S. aureus (fold increase in extracellular AK activity)); 1 with K. pneumoniae (cutoff for positive-scoring molecules 3-fold increase, read-out: AK-based Prestwick Library Screening Results, K. pneumoniae (fold increase in extracellular AK activity)); 1 in the test with E. faecium (cutoff for positive-scoring molecules 3-fold increase, read-out: AK-based Prestwick Library Screening Results, E. faecium (fold increase in extracellular AK activity)); 1.2 in the test on P. aeruginosa (cutoff for positive-scoring molecules 3-fold increase, read-out: AK-based Prestwick Library Screening Results, P. aeruginosa (fold increase in extracellular AK activity)). Also, the fold induction at 50 µM in the test with E. cloacae (cutoff for positive-scoring molecules 3-fold increase, read-out: AK-based Prestwick Library Screening Results, E. cloacae (fold increase in extracellular AK activity)) stood at 1.5.
As for `CSc1ccc2c(c1)C(N1CCN(C)CC1)Cc1ccccc1S2.O=C(O)/C=C\C(=O)O` (centres unmarked) [Methiothepin maleate], the “AK-based Prestwick Library Screening Results, A. baumannii (fold increase in extracellular AK activity)” value in test [1] (setting [10]) amounted to 1.5. Besides, in the test with E. coli (setting [10]), the “AK-based Prestwick Library Screening Results, E. coli (fold increase in extracellular AK activity)” value is recorded as 1.4. For the same compound, in test [2] (setting [10]), the “AK-based Prestwick Library Screening Results, S. aureus (fold increase in extracellular AK activity)” value turned out to be 1.3. The “AK-based Prestwick Library Screening Results, K. pneumoniae (fold increase in extracellular AK activity)” value with K. pneumoniae (setting [10]) turned out to be 1.3. For the same compound, the “AK-based Prestwick Library Screening Results, E. faecium (fold increase in extracellular AK activity)” value in the test on E. faecium (setting [10]) is reported as 1.0. Further, the “AK-based Prestwick Library Screening Results, P. aeruginosa (fold increase in extracellular AK activity)” value in the test with P. aeruginosa (setting [10]) was determined as 1.1. Also, the “AK-based Prestwick Library Screening Results, E. cloacae (fold increase in extracellular AK activity)” value in the test on E. cloacae (setting [10]) turned out to be 1.8.
